This is an account of results in patent publication US20240322218A1, “DIAMONDOID SALTS AND RELATED COMPOSITIONS” (Wisconsin Alumni Research Foundation, priority 2021, published 2024).

Data set [1] in a line: Cyclic voltammetry, cathodic stability / solvent protection. To be noted: comparable electrochemical potentials, FIGS. 6 and 7.
From the text: Included representative data was acquired using a platinum counter electrode, a silver/silver nitrate (Ag/AgNO3) acetonitrile non-aqueous reference electrode, and a variety of working electrodes, which spans a wide-range of standard materials and protocols for electrochemical characterization of ionic liquids and organic plastic crystals. The hardware used was a Biologic potentiostat model SP-300.
A representative procedure using acetonitrile as a solvent and Ag as the working electrode was as follows: • 1. Measure the concentration of water in acetonitrile using Karl Fischer titration. • a. Adjust concentration to ˜1000 ppm water in acetonitrile solvent. • 2. Add diamondoid salt containing electrolyte to make a defined concentration in a 4-dram scintillation vial. • 3. Polish the working electrode using alumina slurry and a polishing pad. • 4. Polish the counter electrode and the Ag wire for the reference electrode. • 5. Clean the electrode surfaces and sonicate for ˜5 seconds. Dry the counter and Ag wire electrode. • 6. Prepare the non-aqueous reference electrode by adding new reference electrolyte consisting of 0.01M AgNO3 and 0.1M tetrabutylammonium tetrafluoroborate (TBA BF4) in acetonitrile. Add the silver wire. • 7. Assemble the electrochemical cell using a custom-printed electrochemical cap by adding the counter, reference, and working electrodes. • 8. […]
The conditions of data set [2]: literature (Lassegues et al. 2009); cited from earlier work.
Data set [3] can be described thus: Static 7Li NMR linewidth (lithium mobility) of mixtures with [Li][TFSI]. In kind it is physicochemical. To be noted: for Peak Width: static 7Li NMR, 0.1 mole fraction [Li][TFSI] mixtures with the TFSI salt of the cation. As to the method: All NMR measurements were carried out at 11.7 T using a broad band two channel 4 mm standard-bore cross-polarization magic-angle spinning (CP MAS) probe on a Bruker Avance III spectrometer with a proton radio frequency of 500.22 MHz, a ^13C radio frequency of 125.76 MHZ, a ^19F radio frequency 470.66 MHz, and a ^7Li radio frequency 194.40 MHz. The MAS rate was 10 KHz for the CP and ^19F experiments, and static for the ^7Li experiments. 4 mm zirconium rotors with Torlon caps and Viton O-rings were used. Approximately 100 mg of samples was packed into each rotor. All samples were prepared and sealed in a nitrogen glove box. The spinning axis was calibrated to the magic angle using KBr.
^7Li NMR spectra were acquired using […] the same instrumentation used for ^13C NMR. Protocols and pulse sequences were modified to enhance cross-polarization of ^7Li nuclei. Spectra shown represent 16 signal averages with a 0.05 second acquisition time and a 256 second recycle delay between scans. A pulse length of 2 μs was used to maintain a flip angle of less than π/6.
To evaluate the hypothesis that suppression of lithium coordination and incorporation of rigid molecular species can mobilize lithium, solid state NMR spectroscopy of ^7Li was performed to evaluate changes in lithium linewidths as a means of measuring changes in lithium mobility. Static ^7Li NMR spectra indicate the degree of chemical shift anisotropy that the lithium atoms experienced in each salt mixture. […] If the magnetic moment is dependent on the crystallographic orientation, then the lithium is more heavily interacting with the surrounding atoms.

The nature of data set [4]: Phase characterization / miscibility with [Li][TFSI] (DSC). In kind it is physicochemical. The note with it: for eutectic composition / miscibility gap onset (single phase solid to binary phase solid transition): mixtures with [Li][TFSI]. As for the experimental part:
The physical properties of the electrolytes, including solubility, thermal stability, phase transition temperatures, viscosity, and density were measured using a combination of accepted characterization techniques, including differential scanning calorimetry (DSC—measurement of phase transition temperatures), thermogravimetric analysis (TGA—measurement of thermal stability), particle-tracking micro-rheology (viscosity), and hydrometer (density). […] Phase transition temperatures, densities, and viscosities were seen to be dependent on the structures of diamondoid salts, as well as presence of additional “dopant” species, such as lithium salts, other diamondoid salts, or solvent molecules. Melting transitions ranged from below room temperature (below: 15° C.) to above 100° C., which spans the entire definition of an “ionic liquid,” range, as well as “organic plastic crystal” electrolyte range.
[Li][TFSI] and organic salt mixtures were melted together under vacuum at 100° C. The melting point of [DiamImMe][TFSI] and [AdImAd][TFSI] exceeded 100° C., so mixtures with those salts were melted and dried at 150° C. Heating was avoided above 150° C. as [Li][TFSI] is reported to undergo an oxidation reaction at temperatures approaching the melting point of pure [Li][TFSI]. After two days, samples were moved to a nitrogen glove box. Water and oxygen levels in the glovebox were monitored to be less than 0.5 ppm.
Differential scanning calorimetry (DSC) was performed using a TA instruments Q100. Samples were sealed in hermetic pans inside of a glovebox. [AdImMe][TFSI], [Me2AdImMe][TFSI], [DiamImMe][TFSI], and [AdImAd][TFSI] samples were equilibrated at −50° C., held at that temperature for three minutes, and then heated to 250° C. at a rate of 2° C. per minute. [C14MIm][TFSI] samples were cooled at a rate of 1° C. per minute to −50° C., held at that temperature for three minutes, and then heated to 250° C. at 2° C. per minute. […] Since no phase change was present, these faster scans were performed to look for the dissolving of [Li][TFSI].

Data set [5] is described as follows: Raman spectroscopy of the TFSI stretching mode. It is filed as physicochemical. The note with it: for TFSI Raman shift: neat TFSI salt of the cation, 532 nm laser. From the text:
Raman spectra were taken on a LabRAM HR Evolution Horiba microscope using a 532 nm laser and grating of 1800 gr/mm. All Raman spectra were fitted and processed using Horiba's LabSpec6 software. Samples were sealed in glass slides inside of a nitrogen glove box using paraffin wax before spectra were taken.

For `Cn1cc[n+](C23CC4CC(CC(C4)C2)C3)c1.[Br-]`, the melting point lay in the range of 230 to 234.1 °C.
Take “1-ethyl-3-methylimidazolium bis(trifluoromethylsulfonyl)imide”: the “cathodic stability” value in data set [1] is reported as “pronounced cathodic decomposition”. In data set [2], the “phase transition via Raman spectroscopy” value was 0.2 mole fraction [Li][TFSI].
Turning to `[Br-].c1c[n+](C23CC4CC(CC(C4)C2)C3)cn1C12CC3CC(CC(C3)C1)C2` [Compound 4, 1,3-bis(adamantan-1-yl)imidazolium bromide], the melting point was in the range of 327.5 to 329.9 °C.
In the case of `Cn1cc[n+](C23CC4C5CC6CC4C(C2)C(C6)C5C3)c1` [Compound 5, 3-(diamantan-4-yl)-1-methylimidazolium bis(trifluoromethane)sulfonimide], in data set [3], the “Peak Width” value was determined as 1634 Hz. In data set [4] (lithium salt in the diamondoid salt), the “miscibility with lithium bis(trifluorosulfonyl)imide” value was “up to 50 mol %”. In data set [4], the eutectic composition was ~0.5 mol fraction [Li][TFSI] and the “miscibility gap onset (single phase solid to binary phase solid transition)” value came to 0.2 mol fraction [Li][TFSI]. The “TFSI Raman shift” value in data set [5] was 743 cm⁻¹.
For `O=S(=O)([N-]S(=O)(=O)C(F)(F)F)C(F)(F)F.c1c[n+](C23CC4CC(CC(C4)C2)C3)cn1C12CC3CC(CC(C3)C1)C2` [[AdImAd][TFSI]], the “Peak Width” value in data set [3] worked out at 3159 Hz. Besides, in data set [5], the “change of TFSI Raman spectrum in equimolar mixture with [Li][TFSI]” value is listed as “essentially eliminated” and the “TFSI Raman shift” value is “ca. 740 cm^−1”. Further, the “TFSI Raman shift” value in data set [5] (listed as AdImAd) stood at 740 cm⁻¹.
Regarding `C[n+]1ccn(C23CC4CC(CC(C4)C2)C3)c1.O=S(=O)([N-]S(=O)(=O)C(F)(F)F)C(F)(F)F` [[AdImMe][TFSI]], the “peak thinner than 0.1 mole fraction [Li][TFSI] in N-ethyl-N-methylpyrrolidinium bis(fluorosulfonyl)imide mixture” value in data set [3] (0.1 mole fraction [Li][TFSI] mixture) was 10%. Besides, the “Peak Width” value in data set [3] came to 454 Hz. In addition, in data set [4], the eutectic composition is ~0.5 mol fraction [Li][TFSI] and the “miscibility gap onset (single phase solid to binary phase solid transition)” value came to 0.2 mol fraction [Li][TFSI]. Moreover, in data set [5], the “change of TFSI Raman spectrum in equimolar mixture with [Li][TFSI]” value is given as “no statistical change” and the “TFSI Raman shift” value is “ca. 745 cm^−1”. Also, in data set [5] (listed as AdImMe), the “TFSI Raman shift” value is 745 cm⁻¹.
Consider `CCCCCCCCCCn1cc[n+](C)c1.O=S(=O)([N-]S(=O)(=O)C(F)(F)F)C(F)(F)F` [[C10MIm][TFSI], 1-decyl-3-methylimidazolium TFSI, reference compound], for which the entries for the “TFSI Raman shift” value in data set [5] and in data set [5] (listed as [C10ImMe][TFSI]) were 742 cm⁻¹ and “ca. 742 cm^−1”, respectively.
In the case of `CCCCCCCCCCCCCCn1cc[n+](C)c1.O=S(=O)([N-]S(=O)(=O)C(F)(F)F)C(F)(F)F` [[C14MIm][TFSI], 1-tetradecyl-3-methylimidazolium TFSI, reference compound], the “TFSI Raman shift” value in data set [5] was 742 cm⁻¹; in data set [5] (listed as [C14ImMe][TFSI]), “ca. 742 cm^−1”.
For `O=S(=O)([N-]S(=O)(=O)C(F)(F)F)C(F)(F)F.[Li+]` [[Li][TFSI], lithium bis(trifluorosulfonyl)imide, reference compound], the “TFSI Raman shift” value in data set [5] was “ca. 747 cm^−1”; in data set [5] (listed as Li), 747 cm⁻¹.
For the molecule `C[n+]1ccn(C23CC4CC(C)(CC(C)(C4)C2)C3)c1.O=S(=O)([N-]S(=O)(=O)C(F)(F)F)C(F)(F)F` [[Me2AdImMe][TFSI]], the “TFSI Raman shift” value in data set [5] came out at 741 cm⁻¹.
